The values below come from patent publication EP0583566A2, “Process for the preparation of glycine-conjugated bile acids and relative pharmaceutical compositions useful for treating hepatic insufficiency” (ERREGIERRE INDUSTRIA CHIMICA Spa, priority 1992, dated 1994).

For data set [1] the following is noted: in vivo. From the text:
GUDCA is well absorbed by the intestine through a double mechanism, i.e. active and passive, transported to the liver by the portal system and uptaken. It passes rapidly through the liver without being metabolized and is then secreted in the bile with high transport rate and efficiency.

Another data set can be described thus: uptake by the liver. Format: in vivo. From the text:
GUDCA is well absorbed by the intestine through a double mechanism, i.e. active and passive, transported to the liver by the portal system and uptaken. It passes rapidly through the liver without being metabolized and is then secreted in the bile with high transport rate and efficiency. UDCA is absorbed only through a passive mechanism and is uptaken by liver at 50% (GUDCA at 80%).

Data set [2] can be described thus: critical micellar concentration (detergent capacity). Format: physicochemical.
The subject of data set [3] is hepatotoxic effects of TUDCA. As to the kind of experiment: hepatoprotective activity against bile acid hepatotoxicity on co-administration. Type of data set: in vivo. As to conditions: 0.8 µmol/min/100g. From the text:
Normal values of alkaline phosphatase (ALP) and biliary lactate dehydrogenase (LDH) as well as of bile flow and calcium secretion are thereby obtained.

Where two headings read alike, the source gives them in different places.

In the case of `C[C@H](CCC(=O)O)[C@H]1CC[C@H]2[C@@H]3[C@@H](O)C[C@@H]4C[C@H](O)CC[C@]4(C)[C@H]3CC[C@]12C` [UDCA, ursodeoxycholic acid], in data set [1], the Fa was 50% and the “pH values of the intestine contents at which absorbed” value is reported as 8.5. For the same compound, the hepatic extraction ratio in “uptake by the liver” (liver, read-out: uptaken by liver) is 0.5.
Usually pKa stands for the negative logarithm of the acid dissociation constant. In the data set “pKa”, `C[C@H](CCC(=O)NCCS(=O)(=O)O)[C@H]1CC[C@H]2[C@@H]3[C@@H](O)C[C@@H]4C[C@H](O)CC[C@]4(C)[C@H]3CC[C@]12C` [TUDCA, tauroursodeoxycholic acid] had a pKa of approximately 1.
As a reminder, the logP is the decadic logarithm of the partition coefficient of the neutral form, usually between octanol and water. High values mean a more lipophilic compound, low ones a more hydrophilic compound. The compound `C[C@H](CCC(=O)NCC(=O)O)[C@H]1CC[C@H]2[C@@H]3[C@@H](O)C[C@@H]4C[C@H](O)CC[C@]4(C)[C@H]3CC[C@]12C` [GUDCA, glycoursodeoxycholic acid] showed a critical micellar concentration in data set [2] of 12 µM. The Fa in data set [1] was 100%. Moreover, the hepatic extraction ratio in “uptake by the liver” (in vivo) is 0.8. Also, the “prevention of hepatotoxic effects” value in data set [3] (administered with TUDCA at the same dose) is listed as “can prevent the hepatotoxic effects”. Also, in data set [3] (for GUDCA also bile flow and calcium secretion normal), the “alkaline phosphatase (ALP) and biliary lactate dehydrogenase (LDH)” value is recorded as “Normal values”. Besides, the logP in the data set “physchem” turned out to be 2.
